Measured values from ChEMBL document CHEMBL1201862, “PubChem BioAssay data set” (2004).
Several values for one entry are separate records, joined by “and”; a condition that tells them apart may be missing. Equal entries are not always repeated.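 The compound was tested at five concentrations on cells cultured in 96-well plates, with a 48-hour exposure period. Abbreviation: GI50, concentration required for 50% inhibition of growth.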 Activity calls are given as the source filed them. No stated cut-off is given here; in the data, active = GI50 up to about 1.1 µM and inactive = higher.

How the values were obtained:
Test in all cases: NCI anticancer screen, dose series, 48 h
[1] = test system: HCC 2998
[2] = test system: 786-0
[3] = test system: SW-620
[4] = test system: SR
[5] = test system: TK-10
[6] = test system: ACHN
[7] = test system: UACC-257
[8] = test system: HT-29
[9] = test system: MOLT-4
[10] = test system: UACC-62
[11] = test system: OVCAR-5
[12] = test system: M14
[13] = test system: SNB-19
[14] = test system: NCI-H522
[15] = test system: CAKI-1
[16] = test system: U-251
[17] = test system: HOP-62
[18] = test system: NCI/ADR-RES
[19] = test system: MDA-MB-435
[20] = test system: MDA-N

| Compound | GI50 [1] | GI50 [2] | GI50 [3] | GI50 [4] | GI50 [5] | GI50 [6] | GI50 [7] | GI50 [8] | GI50 [9] | GI50 [10] | GI50 [11] | GI50 [12] | GI50 [13] | GI50 [14] | GI50 [15] | GI50 [16] | GI50 [17] | GI50 [18] | GI50 [19] | GI50 [20] |
| --- | --- | --- | --- | --- | --- | --- | --- | --- | --- | --- | --- | --- | --- | --- | --- | --- | --- | --- | --- | --- |
| O=C(/C=C\c1ccc(Cl)c(Cl)c1)c1ccc(Cl)cc1Cl | 16.7 µM (inactive) | 17.4 µM (inactive) | 2.69 µM (inactive) | 3.09 µM (inactive) | > 10 µM (inactive) | 17.3 µM (inactive) | 19.9 µM (inactive) | 16.8 µM (inactive) | 2.99 µM (inactive) | 18.5 µM (inactive) | > 10 µM (inactive) | 21.9 µM (inactive) | 12.4 µM (inactive) | 15.9 µM (inactive) | 27.3 µM (inactive) | 11.9 µM (inactive) | > 10 µM (inactive) |  |  |  |
| CCCc1cn2c(/C=N/NC(=N)N)c(-c3cccc([N+](=O)[O-])c3)nc2s1 |  | 1.95 µM (inactive) | 3.08 µM (inactive) | 2.09 µM (inactive) | 0.0405 µM (active) | 1.79 µM (inactive) | 1.71 µM (inactive) | 2.06 µM (inactive) | 1.23 µM (inactive) | 1.61 µM (inactive) | 1.81 µM (inactive) | 2.02 µM (inactive) | 2.07 µM (inactive) | 1.98 µM (inactive) | 2.01 µM (inactive) | 1.86 µM (inactive) | 1.78 µM (inactive) | 2.92 µM (inactive) | 1.76 µM (inactive) |  |
| O=C(Nn1cnn2c(=O)c3ccccc3nc2c1=O)c1ccccc1 | > 100 µM (inactive) | > 100 µM (inactive) | > 100 µM (inactive) | > 100 µM (inactive) | > 100 µM (inactive) | > 100 µM (inactive) | > 100 µM (inactive) | > 100 µM (inactive) |  | > 100 µM (inactive) | > 100 µM (inactive) | > 100 µM (inactive) | > 100 µM (inactive) | > 100 µM (inactive) | > 100 µM (inactive) | > 100 µM (inactive) | > 100 µM (inactive) |  | > 100 µM (inactive) | > 100 µM (inactive) |
| Cc1c(Cl)cccc1NC(=O)c1cccc([N+](=O)[O-])c1O | 7.18 µM (inactive) | 20.5 µM (inactive) | 28.2 µM (inactive) | 22.3 µM (inactive) | 41.8 µM (inactive) | 7.83 µM (inactive) | 8.51 µM (inactive) | 12.9 µM (inactive) | 5.82 µM (inactive) | 2.18 µM (inactive) | > 43 µM (inactive) | 16.8 µM (inactive) | 8.55 µM (inactive) | 6.44 µM (inactive) | 9.59 µM (inactive) | 9.44 µM (inactive) | 9.29 µM (inactive) |  |  |  |
| CC(C)(C)N1CC2(CCCCC2)C1=O | > 100 µM (inactive) | > 100 µM (inactive) | > 100 µM (inactive) | > 100 µM (inactive) | > 100 µM (inactive) | > 100 µM (inactive) | > 100 µM (inactive) | > 100 µM (inactive) | > 100 µM (inactive) | > 100 µM (inactive) | > 100 µM (inactive) | > 100 µM (inactive) | > 100 µM (inactive) | > 100 µM (inactive) | > 100 µM (inactive) | > 100 µM (inactive) | > 100 µM (inactive) |  |  |  |
| C1CC2CN(CCCN3CCOCC3)C(C1)O2 (configuration not stated) |  | > 100 µM (inactive) | > 100 µM (inactive) |  | > 100 µM (inactive) | > 100 µM (inactive) | > 100 µM (inactive) | > 100 µM (inactive) | > 100 µM (inactive) | > 100 µM (inactive) | > 100 µM (inactive) | > 100 µM (inactive) | > 100 µM (inactive) | > 100 µM (inactive) | > 100 µM (inactive) | > 100 µM (inactive) | > 100 µM (inactive) | > 100 µM (inactive) | > 100 µM (inactive) | > 100 µM (inactive) |
| CCc1nc(Cl)c(Cl)c(Cl)n1 | > 100 µM (inactive) | > 100 µM (inactive) | > 100 µM (inactive) | > 100 µM (inactive) | > 100 µM (inactive) | > 100 µM (inactive) | > 100 µM (inactive) | > 100 µM (inactive) | > 100 µM (inactive) | > 100 µM (inactive) | > 100 µM (inactive) | > 100 µM (inactive) | > 100 µM (inactive) |  |  | > 100 µM (inactive) | > 100 µM (inactive) | > 100 µM (inactive) | > 100 µM (inactive) |  |
| C=C1CC2OC2(C(=O)O[C@H]2CCC3[C@@H]4CCC5=CC(=O)CC[C@]5(C)C4CC[C@@]32C)C1=O (some centres not stated) | 31.6 µM (inactive) | 2.04 µM (inactive) | 3.4 µM (inactive) | 0.805 µM (active) | 6.49 µM (inactive) | 8.09 µM (inactive) | 8.05 µM (inactive) | 8.34 µM (inactive) | 1.49 µM (inactive) | 14.6 µM (inactive) | 19.6 µM (inactive) | 7.23 µM (inactive) | 18.7 µM (inactive) | 2.47 µM (inactive) | 11.9 µM (inactive) | 8.97 µM (inactive) | 21.4 µM (inactive) |  | 12.7 µM (inactive) |  |
| CN(C)CCC(=O)N1CCc2c([nH]c3ccccc23)C1c1cccnc1 (configuration not stated) | > 100 µM (inactive) | > 100 µM (inactive) | > 100 µM (inactive) | > 100 µM (inactive) | > 100 µM (inactive) | > 100 µM (inactive) | 28.5 µM (inactive) | > 100 µM (inactive) | > 100 µM (inactive) | > 100 µM (inactive) | > 100 µM (inactive) | > 100 µM (inactive) | > 100 µM (inactive) | > 100 µM (inactive) | > 100 µM (inactive) | > 100 µM (inactive) | > 100 µM (inactive) |  |  |  |
| CC(=O)O[C@H]1CC[C@@]2(C)C(CC[C@]3(C)C2CC[C@]2(C)Oc4c(C)cc(O)cc4C[C@@H]23)C1(C)C (some centres not stated) | 7.6 µM (inactive) | 1.99 µM (inactive) | 1.88 µM (inactive) | 2.67 µM (inactive) | 13.2 µM (inactive) | 5.46 µM (inactive) | 8.47 µM (inactive) | 11.2 µM (inactive) | 2.84 µM (inactive) | 8.59 µM (inactive) | 10.9 µM (inactive) | 11.9 µM (inactive) | 4.24 µM (inactive) | 5.46 µM (inactive) | 8.99 µM (inactive) | 2.71 µM (inactive) | 10.8 µM (inactive) |  |  |  |
| CNC(=O)N1N[C@H](c2ccccc2)[C@@H]1c1ccccc1.OB(O)O | 31 µM (inactive) | 32.4 µM (inactive) | 28.4 µM (inactive) | 18.4 µM (inactive) | 40.4 µM (inactive) | 36.6 µM (inactive) | 35.9 µM (inactive) | 16.4 µM (inactive) | 18.7 µM (inactive) | 13.2 µM (inactive) | 29.9 µM (inactive) | 21.9 µM (inactive) | 46.1 µM (inactive) |  | 32.7 µM (inactive) | 20 µM (inactive) | 28.6 µM (inactive) | 15.4 µM (inactive) |  | 28.1 µM (inactive) |
| C=C[C@]1(C)CC(=O)C(C(C)C=O)[C@]12C(=O)Oc1cccc(C)c1C2=O (some centres not stated) | 17.7 µM (inactive) | 16.4 µM (inactive) | 11.8 µM (inactive) | 27 µM (inactive) | 14.8 µM (inactive) | 15.6 µM (inactive) | 17.6 µM (inactive) | 13.7 µM (inactive) | 23.9 µM (inactive) | 16.1 µM (inactive) | 16.6 µM (inactive) | 16.3 µM (inactive) | 12.2 µM (inactive) | 3.72 µM (inactive) | 14.4 µM (inactive) | 14.6 µM (inactive) | 20.2 µM (inactive) |  | 15.2 µM (inactive) | 14.5 µM (inactive) |
| CC(=O)C(=[N+]=[N-])C(=O)N(C)CCC#N |  | > 10 µM (inactive) | > 10 µM (inactive) | > 10 µM (inactive) | > 10 µM (inactive) | > 10 µM (inactive) | > 10 µM (inactive) | > 10 µM (inactive) | > 10 µM (inactive) | 3.58 µM (inactive) | > 10 µM (inactive) | > 10 µM (inactive) | > 10 µM (inactive) |  |  | > 10 µM (inactive) | > 10 µM (inactive) |  | > 10 µM (inactive) | > 10 µM (inactive) |
| C/C(=N\c1ccc(N(C)C)cc1)c1ccccc1 | 44.6 µM (inactive) | 19.8 µM (inactive) | 17.9 µM (inactive) | 19.2 µM (inactive) | 20.8 µM (inactive) | 26.2 µM (inactive) | > 10 µM (inactive) | 30.5 µM (inactive) | 23.9 µM (inactive) | 17.1 µM (inactive) | > 100 µM (inactive) | 16.3 µM (inactive) | 86.3 µM (inactive) | 16.7 µM (inactive) | 19.8 µM (inactive) | 22.5 µM (inactive) | 96.2 µM (inactive) | 27 µM (inactive) |  | 21.9 µM (inactive) |
| COC(=O)C1=COC(C)C2CN3CCc4c([nH]c5cc(OC)c(OC)cc45)C3CC12 (configuration not stated) | 58.2 µM (inactive) and 36.1 µM (inactive) | > 100 µM (inactive) and 73.8 µM (inactive) |  | 31 µM (inactive) and 58.6 µM (inactive) | > 100 µM (inactive) and 87.1 µM (inactive) | 36.3 µM (inactive) and 31.3 µM (inactive) | > 100 µM (inactive) | 34.2 µM (inactive) and 34.7 µM (inactive) | 35.5 µM (inactive) and 28.6 µM (inactive) | 99.8 µM (inactive) and 88.7 µM (inactive) | > 100 µM (inactive) | > 100 µM (inactive) and 65.9 µM (inactive) | 66.8 µM (inactive) and 75.3 µM (inactive) |  | > 100 µM (inactive) |  | 89.7 µM (inactive) |  | > 100 µM (inactive) and 72.6 µM (inactive) | 55.7 µM (inactive) |
